Experimental data: paper PMC12694606, “DNA-programmed bispecific peptide assemblies for delivering cytotoxic payload to cells expressing EGFR and MET receptors” (RSC Chemical Biology, 2025)
Non-standard residues stand in square brackets, D forms with d. Residues, ends and D or L forms follow the SMILES beside them. *: point of attachment. Dolaproine = CO[C@@H]([C@@H]1CCCN1)[C@@H](C)C(=O)O; Dil = CC[C@H](C)[C@H](NC)[C@@H](CC(=O)O)OC; X1 = C[C@@H](N*)[C@@H](O)c1ccccc1; NMeV = CN[C@H](C(=O)O)C(C)C

Test system: A549 cells (EGFR+, MET+)
Assay: AlamarBlue cell viability assay, A549 cells
Procedure: Fig. 5 (a) Arming DNA-template strands in OS21 and OS21+3 with the toxin vcMMAE. […] Viability was normalized to PBS treatment (100% value) and ethanol treatment (0% value). Conditions: 10^4 cells per well in 100 µL medium and propagated 24 h to a confluency of ca. 85% cells, probes were incubated for 10 min in PBS, 37 °C, 5% CO2; AlamarBlue assay in full medium, 6 h.
A549 cells were incubated with the oligonucleotide assemblies for ten minutes. Cell viability was assessed six hours later using an AlamarBlue assay. […] For comparison, we assessed the viability response to treatment with MMAE at a 100 nM concentration in unconjugated form. […] Next, the cells were treated in the presence of HGF.
A549 cells were seeded into wells of a 96 well-microtiter plate (100 μL in respective medium)
at a density of 10 4 cells/well. Cells were allowed to grow for 24 h to a confluency of ca. 85%.
The medium was removed and wells carefully washed once with PBS (preheated at 37°C). The
probes were added at specific concentrations in PBS with or without HGF (100 ng/mL). The
cells were incubated at 37°C, 5% CO 2 for 10 minutes. After one careful wash with PBS, 10%
alamar blue was added, and the fluorescence signal (590 nm) was recorded after 6 hours using
Cytotoxicity of cathepsin B-cleavable vcMMAE-DNA-peptide complex with different […]

| Compound | cell viability (100 nM, unconjugated form, 10 min in PBS, AlamarBlue 6 h (Fig. S17)) [%] | cell viability, control experiments (in words) (Fig. S17, 10 min in PBS, AlamarBlue 6 h) |
| --- | --- | --- |
| CC[C@H](C)[C@@H]([C@@H](CC(=O)N1CCC[C@H]1[C@H](OC)[C@@H](C)C(=O)N[C@H](C)[C@@H](O)c1ccccc1)OC)N(C)C(=O)[C@@H](NC(=O)[C@@H](NC)C(C)C)C(C)C [MMAE, monomethyl auristatin E] (H-[NMeV]V[Dil][Dolaproine]-X1) | 79 | – |
| HGF: hepatocyte growth factor, used at 100 ng/mL to induce MET internalization | – | unaffected |
